Data reported in ChEMBL document CHEMBL5465560, “Selectivity Literature for EUbOPEN Chemogenomic Library” (2024).

Tests used:
[1] = target: Serine/threonine-protein kinase 32A (Homo sapiens) (UniProt Q8WU08); test: Selectivity interaction (KinomeScan (DiscoverX)) EUB0001049a STK32A; settings: at 1 µM
[2] = target: Mitogen-activated protein kinase 14 (Homo sapiens, UniProt Q16539); test: Selectivity interaction (Kinase panel (literature)) EUB0001199aCl MAPK14; settings: at 1 µM
[3] = target: Bromodomain adjacent to zinc finger domain protein 2B (Homo sapiens) (UniProt Q9UIF8); test: Selectivity interaction (Human bromodomain panel (DSF assay)) EUB0000233b BAZ2B
Bromodomain adjacent to zinc finger domain protein 2B (Homo sapiens), sequence (Q9UIF8 whole entry, the tested form may be a part): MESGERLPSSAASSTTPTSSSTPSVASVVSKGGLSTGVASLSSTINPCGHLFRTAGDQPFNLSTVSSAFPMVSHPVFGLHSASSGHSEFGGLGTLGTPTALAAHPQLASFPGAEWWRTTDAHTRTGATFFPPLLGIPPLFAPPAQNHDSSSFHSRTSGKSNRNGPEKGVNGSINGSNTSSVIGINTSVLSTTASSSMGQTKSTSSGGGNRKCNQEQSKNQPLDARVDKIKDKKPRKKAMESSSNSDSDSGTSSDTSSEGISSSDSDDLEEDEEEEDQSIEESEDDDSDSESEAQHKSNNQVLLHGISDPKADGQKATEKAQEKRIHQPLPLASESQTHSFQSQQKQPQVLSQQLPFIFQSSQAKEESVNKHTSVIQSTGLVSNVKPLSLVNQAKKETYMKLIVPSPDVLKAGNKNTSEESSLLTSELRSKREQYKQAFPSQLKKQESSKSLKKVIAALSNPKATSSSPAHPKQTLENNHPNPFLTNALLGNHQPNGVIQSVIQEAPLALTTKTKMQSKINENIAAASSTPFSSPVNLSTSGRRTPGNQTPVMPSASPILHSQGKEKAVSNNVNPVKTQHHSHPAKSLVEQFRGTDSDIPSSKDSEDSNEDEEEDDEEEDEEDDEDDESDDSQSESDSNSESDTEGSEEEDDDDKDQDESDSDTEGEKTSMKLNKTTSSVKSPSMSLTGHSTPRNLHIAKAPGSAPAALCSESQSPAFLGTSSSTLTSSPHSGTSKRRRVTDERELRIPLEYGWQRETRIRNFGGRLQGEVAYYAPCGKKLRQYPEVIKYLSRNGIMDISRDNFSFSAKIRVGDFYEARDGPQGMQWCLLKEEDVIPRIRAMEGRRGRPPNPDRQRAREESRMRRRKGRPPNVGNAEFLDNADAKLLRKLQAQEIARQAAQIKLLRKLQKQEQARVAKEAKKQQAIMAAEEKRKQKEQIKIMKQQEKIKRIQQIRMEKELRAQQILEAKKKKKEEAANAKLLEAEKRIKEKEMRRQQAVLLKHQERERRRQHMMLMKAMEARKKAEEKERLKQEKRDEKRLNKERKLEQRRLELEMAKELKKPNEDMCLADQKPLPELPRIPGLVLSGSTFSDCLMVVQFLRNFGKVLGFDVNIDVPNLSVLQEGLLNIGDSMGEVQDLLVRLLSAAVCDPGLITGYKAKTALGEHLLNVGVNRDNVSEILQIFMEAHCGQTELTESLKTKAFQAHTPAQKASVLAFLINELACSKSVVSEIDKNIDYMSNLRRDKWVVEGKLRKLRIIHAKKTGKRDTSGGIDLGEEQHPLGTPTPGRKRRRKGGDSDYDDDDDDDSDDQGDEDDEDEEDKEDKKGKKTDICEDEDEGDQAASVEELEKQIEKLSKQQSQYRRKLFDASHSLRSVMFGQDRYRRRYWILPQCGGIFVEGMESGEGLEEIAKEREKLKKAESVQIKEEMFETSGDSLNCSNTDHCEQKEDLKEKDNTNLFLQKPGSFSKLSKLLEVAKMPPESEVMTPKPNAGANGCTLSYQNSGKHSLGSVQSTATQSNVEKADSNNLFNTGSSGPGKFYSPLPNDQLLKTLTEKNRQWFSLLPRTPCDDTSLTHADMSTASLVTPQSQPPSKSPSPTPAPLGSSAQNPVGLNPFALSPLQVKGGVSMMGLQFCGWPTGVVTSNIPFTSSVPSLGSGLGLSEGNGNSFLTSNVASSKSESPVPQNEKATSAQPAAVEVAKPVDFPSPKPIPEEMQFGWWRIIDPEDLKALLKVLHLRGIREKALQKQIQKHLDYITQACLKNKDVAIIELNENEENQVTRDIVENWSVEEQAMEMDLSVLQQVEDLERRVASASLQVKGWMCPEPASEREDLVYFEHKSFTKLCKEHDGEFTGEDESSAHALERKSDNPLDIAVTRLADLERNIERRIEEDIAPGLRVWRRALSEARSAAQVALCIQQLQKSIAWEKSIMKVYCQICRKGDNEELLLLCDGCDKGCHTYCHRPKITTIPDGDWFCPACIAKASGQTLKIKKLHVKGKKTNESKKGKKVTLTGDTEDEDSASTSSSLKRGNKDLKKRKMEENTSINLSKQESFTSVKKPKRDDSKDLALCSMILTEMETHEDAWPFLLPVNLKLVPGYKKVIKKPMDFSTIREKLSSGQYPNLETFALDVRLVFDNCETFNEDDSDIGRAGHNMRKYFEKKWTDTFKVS

[4] = target: T1, MAP kinase-activated protein kinase 5 (Homo sapiens) (UniProt Q8IW41); test: Selectivity interaction (KinomeScan (DiscoverX)) EUB0000595a MAPKAPK5; settings: at 10 µM
T1 sequence (whole entry): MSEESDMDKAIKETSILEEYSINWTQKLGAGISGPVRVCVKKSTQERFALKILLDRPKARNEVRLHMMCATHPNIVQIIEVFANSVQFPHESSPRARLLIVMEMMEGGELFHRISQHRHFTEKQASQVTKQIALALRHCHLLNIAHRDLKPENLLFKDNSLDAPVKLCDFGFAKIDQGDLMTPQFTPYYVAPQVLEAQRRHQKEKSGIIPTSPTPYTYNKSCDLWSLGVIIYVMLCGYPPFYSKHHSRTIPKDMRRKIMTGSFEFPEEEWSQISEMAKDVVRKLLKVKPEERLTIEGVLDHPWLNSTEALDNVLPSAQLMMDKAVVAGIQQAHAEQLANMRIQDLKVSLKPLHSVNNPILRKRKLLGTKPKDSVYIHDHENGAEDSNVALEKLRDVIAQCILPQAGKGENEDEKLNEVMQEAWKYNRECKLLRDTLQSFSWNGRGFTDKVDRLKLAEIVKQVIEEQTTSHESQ

[5] = target: Serine/threonine-protein kinase pim-3 (Homo sapiens) (UniProt Q86V86); test: Selectivity interaction (KinomeScan (DiscoverX)) EUB0000092b PIM3; settings: at 10 µM
[6] = target: cAMP-dependent protein kinase catalytic subunit alpha (Homo sapiens, UniProt P17612); test: Selectivity interaction (Enzyme panel (AstraZeneca, AlphaScreen, functional assay)) EUB0000621a PRKACA
[7] = target: Serine/threonine-protein kinase PAK 4 (Homo sapiens, UniProt O96013); settings: at 10 µM
Serine/threonine-protein kinase PAK 4, sequence (O96013 whole entry, looked up): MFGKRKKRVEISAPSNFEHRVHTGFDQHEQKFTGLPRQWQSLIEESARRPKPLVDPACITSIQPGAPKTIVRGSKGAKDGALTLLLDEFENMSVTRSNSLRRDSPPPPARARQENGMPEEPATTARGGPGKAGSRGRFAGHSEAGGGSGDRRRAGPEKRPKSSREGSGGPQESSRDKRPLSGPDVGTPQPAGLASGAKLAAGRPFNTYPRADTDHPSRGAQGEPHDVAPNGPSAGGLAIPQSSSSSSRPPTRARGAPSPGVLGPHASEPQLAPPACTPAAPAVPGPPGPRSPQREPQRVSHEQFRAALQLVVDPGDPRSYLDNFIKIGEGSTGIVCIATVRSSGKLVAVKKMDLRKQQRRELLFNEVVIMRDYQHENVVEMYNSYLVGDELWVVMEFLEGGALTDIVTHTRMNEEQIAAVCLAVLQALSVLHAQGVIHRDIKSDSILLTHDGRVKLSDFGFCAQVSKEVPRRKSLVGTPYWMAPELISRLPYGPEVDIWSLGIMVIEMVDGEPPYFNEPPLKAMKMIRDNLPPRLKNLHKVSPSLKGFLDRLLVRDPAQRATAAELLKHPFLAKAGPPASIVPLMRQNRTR

[8] = target: Proto-oncogene tyrosine-protein kinase receptor Ret (Homo sapiens, UniProt P07949)
Proto-oncogene tyrosine-protein kinase receptor Ret, sequence (P07949 whole entry): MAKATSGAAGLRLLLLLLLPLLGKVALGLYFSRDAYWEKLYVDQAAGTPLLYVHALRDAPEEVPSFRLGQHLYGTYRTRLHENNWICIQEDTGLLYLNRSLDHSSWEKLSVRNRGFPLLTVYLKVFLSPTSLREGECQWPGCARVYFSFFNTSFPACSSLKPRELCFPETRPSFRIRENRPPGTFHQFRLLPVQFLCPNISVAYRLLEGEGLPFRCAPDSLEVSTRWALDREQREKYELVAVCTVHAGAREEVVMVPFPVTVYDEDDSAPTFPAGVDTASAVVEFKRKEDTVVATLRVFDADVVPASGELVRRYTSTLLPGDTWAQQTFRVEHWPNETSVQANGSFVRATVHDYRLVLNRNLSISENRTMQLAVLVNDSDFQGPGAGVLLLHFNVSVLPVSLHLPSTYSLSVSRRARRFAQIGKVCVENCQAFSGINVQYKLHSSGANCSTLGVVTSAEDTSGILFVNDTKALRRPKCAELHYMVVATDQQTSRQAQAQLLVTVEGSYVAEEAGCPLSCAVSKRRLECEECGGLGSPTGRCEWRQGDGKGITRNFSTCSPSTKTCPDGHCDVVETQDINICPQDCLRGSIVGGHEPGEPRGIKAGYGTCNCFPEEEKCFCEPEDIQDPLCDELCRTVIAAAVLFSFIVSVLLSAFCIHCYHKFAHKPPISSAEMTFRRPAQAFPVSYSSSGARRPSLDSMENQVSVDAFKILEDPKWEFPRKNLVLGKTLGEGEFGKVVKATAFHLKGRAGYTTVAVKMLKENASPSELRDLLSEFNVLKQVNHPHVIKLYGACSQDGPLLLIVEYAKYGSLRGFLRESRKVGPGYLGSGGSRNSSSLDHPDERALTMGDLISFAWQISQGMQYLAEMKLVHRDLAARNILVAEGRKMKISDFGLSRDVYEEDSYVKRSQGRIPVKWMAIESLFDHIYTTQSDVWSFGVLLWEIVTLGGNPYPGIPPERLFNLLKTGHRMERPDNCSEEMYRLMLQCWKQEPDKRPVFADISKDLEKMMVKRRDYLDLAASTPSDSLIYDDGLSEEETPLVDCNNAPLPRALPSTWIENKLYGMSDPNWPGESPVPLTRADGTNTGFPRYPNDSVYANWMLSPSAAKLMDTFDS

[9] = target: T2, Serine/threonine-protein kinase Nek11 (Homo sapiens) (UniProt Q8NG66); test: Selectivity interaction (KinomeScan (DiscoverX)) EUB0000695a NEK11; settings: at 100 nM
T2 sequence (whole entry): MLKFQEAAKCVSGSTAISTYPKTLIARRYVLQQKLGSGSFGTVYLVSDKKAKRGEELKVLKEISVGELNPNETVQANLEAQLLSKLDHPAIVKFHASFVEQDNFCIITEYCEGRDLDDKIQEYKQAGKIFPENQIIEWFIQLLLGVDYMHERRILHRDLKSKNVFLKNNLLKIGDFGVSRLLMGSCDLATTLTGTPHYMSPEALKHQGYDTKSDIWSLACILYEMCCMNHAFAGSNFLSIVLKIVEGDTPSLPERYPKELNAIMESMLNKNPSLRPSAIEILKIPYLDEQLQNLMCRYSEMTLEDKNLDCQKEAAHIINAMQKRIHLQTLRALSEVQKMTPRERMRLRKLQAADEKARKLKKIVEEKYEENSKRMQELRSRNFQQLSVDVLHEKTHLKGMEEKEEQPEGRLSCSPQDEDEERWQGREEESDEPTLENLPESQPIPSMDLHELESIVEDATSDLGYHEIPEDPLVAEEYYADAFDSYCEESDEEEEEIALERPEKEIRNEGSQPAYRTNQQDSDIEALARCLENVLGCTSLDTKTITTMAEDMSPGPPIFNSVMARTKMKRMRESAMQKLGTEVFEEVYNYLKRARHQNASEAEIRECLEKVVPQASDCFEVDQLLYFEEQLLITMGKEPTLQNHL

[10] = target: T3, cGMP-dependent protein kinase 2 (Homo sapiens) (UniProt Q13237); test: Selectivity interaction (Kinase panel (Z-LYTE Assay)) EUB0001632a PRKG2; settings: at 10 µM
T3 sequence (whole entry): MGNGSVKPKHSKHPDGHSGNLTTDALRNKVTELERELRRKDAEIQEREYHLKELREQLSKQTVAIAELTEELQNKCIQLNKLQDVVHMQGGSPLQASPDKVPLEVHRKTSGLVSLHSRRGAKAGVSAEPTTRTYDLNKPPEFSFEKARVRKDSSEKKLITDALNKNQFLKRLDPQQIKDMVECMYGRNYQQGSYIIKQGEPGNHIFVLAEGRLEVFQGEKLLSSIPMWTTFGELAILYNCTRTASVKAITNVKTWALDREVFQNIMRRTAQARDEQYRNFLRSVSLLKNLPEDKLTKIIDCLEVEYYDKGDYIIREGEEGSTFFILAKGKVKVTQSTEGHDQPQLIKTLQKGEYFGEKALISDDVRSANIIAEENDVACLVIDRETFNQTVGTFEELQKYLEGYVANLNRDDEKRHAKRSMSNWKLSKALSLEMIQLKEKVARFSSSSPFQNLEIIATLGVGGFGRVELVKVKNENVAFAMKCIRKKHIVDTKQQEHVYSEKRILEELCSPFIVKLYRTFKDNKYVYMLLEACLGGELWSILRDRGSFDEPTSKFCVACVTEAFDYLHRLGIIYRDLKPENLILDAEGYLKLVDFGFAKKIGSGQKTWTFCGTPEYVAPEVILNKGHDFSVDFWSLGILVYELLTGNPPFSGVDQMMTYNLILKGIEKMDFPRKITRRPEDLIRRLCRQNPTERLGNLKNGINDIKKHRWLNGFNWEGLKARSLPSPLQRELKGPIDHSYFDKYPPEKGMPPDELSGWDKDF

Mitogen-activated protein kinase 14, sequence (Q16539 whole entry, the tested form may be a part): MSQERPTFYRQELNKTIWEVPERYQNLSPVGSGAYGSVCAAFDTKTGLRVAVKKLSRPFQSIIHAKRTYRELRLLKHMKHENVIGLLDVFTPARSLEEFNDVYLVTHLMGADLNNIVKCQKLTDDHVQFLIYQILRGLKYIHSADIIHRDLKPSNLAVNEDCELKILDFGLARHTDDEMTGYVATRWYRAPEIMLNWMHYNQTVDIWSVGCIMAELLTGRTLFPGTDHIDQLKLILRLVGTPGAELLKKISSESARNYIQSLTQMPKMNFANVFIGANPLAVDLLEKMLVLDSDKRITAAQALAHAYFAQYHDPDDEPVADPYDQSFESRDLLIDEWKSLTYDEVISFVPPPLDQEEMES
Serine/threonine-protein kinase 32A (Homo sapiens), sequence (Q8WU08 whole entry): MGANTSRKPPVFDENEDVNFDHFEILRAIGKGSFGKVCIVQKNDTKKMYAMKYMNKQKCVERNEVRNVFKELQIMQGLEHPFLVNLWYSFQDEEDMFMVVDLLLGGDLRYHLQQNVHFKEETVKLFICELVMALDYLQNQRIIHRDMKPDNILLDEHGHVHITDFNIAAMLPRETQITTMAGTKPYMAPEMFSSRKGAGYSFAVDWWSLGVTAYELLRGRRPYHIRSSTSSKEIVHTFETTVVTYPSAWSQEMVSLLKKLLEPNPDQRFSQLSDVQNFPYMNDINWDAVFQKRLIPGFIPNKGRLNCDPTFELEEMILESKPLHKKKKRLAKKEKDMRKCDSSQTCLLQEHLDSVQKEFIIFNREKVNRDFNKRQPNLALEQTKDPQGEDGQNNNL

COc1cc(Nc2nc(C)cc(-c3cnn4nc(OC)ccc34)n2)cc(C(F)(F)F)c1
% of control [1]: 63%

CN1Cc2nccc(-c3cn(C)nc3-c3ccc(F)cc3)c2C1=O
% of inhibition [2]: 37%

CN(C)CCCOc1ccc(-c2cc(NCCCn3cccn3)nc(S(C)(=O)=O)n2)cc1
dTM [3]: < 2 K

COCC(=O)NC/C=C/c1ccc2ncnc(Nc3ccc(Oc4ccc(C)nc4)c(C)c3)c2c1 [CP-724714]
% of control [4]: 100%

CCC(=O)N1CCN(c2ccc(-n3c(=O)ccc4cnc5ccc(-c6cnc7ccccc7c6)cc5c43)cc2C(F)(F)F)CC1
% of control [5]: 96%

Cc1cc([C@@H](C)Nc2ccccc2C(=O)O)c2nc(N3CCOCC3)cc(=O)n2c1 [AZD-6482]
IC50 [6]: > 999 µM | % of control [7]: 100%

CCc1cccc(CC)c1NC(=O)c1nn(C)c2c1CCc1cnc(Nc3ccc(C(=O)NC4CCN(C)CC4)cc3OC(F)(F)F)nc1-2
IC50 [8]: > 10 µM

Cc1cc(F)c(C(=O)Nc2cccc(-c3nncn3C(C)C)n2)cc1-n1cnc(C2CC2)c1
% of control [9]: 78%

Cn1cc(-n2cnc3c(NCc4nc5cc(Cl)c(Cl)cc5[nH]4)nc(N4CCOCC4)nc32)cn1
% of control [10]: -2.3%
